Experimental findings from ChEMBL document CHEMBL4831526, “Cytotoxic Guaianolide Sesquiterpenoids from Ainsliaea fragrans” (J Nat Prod, 2021) are described below.

SMILES strings stand for the structures. A value given as a limit tells only on which side of the number the result lay.

Holding throughout (type): functional, cell-based
One experiment concerns C6. The experiment can be described thus: Cytotoxicity against rat C6 cells assessed as reduction in cell viability incubated for 72 hrs by Celltiter-Glo assay. The conditions noted are these: C6, 72 h. Background: In ATP-based viability assays light output follows the ATP content of the culture.
For another experiment, the system named is Huh-7. Briefly: Cytotoxicity against human Huh-7 cells assessed as reduction in cell viability incubated for 72 hrs by Celltiter-Glo assay. The conditions noted are these: Huh-7, 72 h.
Experiment [1] is described as follows: Cytotoxicity against human HCCLM3 cells assessed as reduction in cell viability incubated for 72 hrs by Celltiter-Glo assay. Particulars: HCCLM3, 72 h.
Another experiment relates to PANC-1. The experiment can be described thus: Cytotoxicity against human PANC-1 cells assessed as reduction in cell viability incubated for 72 hrs by Celltiter-Glo assay. Particulars: PANC-1, 72 h.
In the next experiment the test system is HeLa. The experiment can be described thus: Cytotoxicity against human HeLa cells assessed as reduction in cell viability incubated for 72 hrs by Celltiter-Glo assay.

In the case of `C=C1C(=O)O[C@@H]2[C@@H]3C4=C(C(=O)[C@H]3CO)[C@]3(CC[C@]4(O)CC[C@@H]12)C(=O)C[C@H]1C(=C)CC[C@H]2C(=C)C(=O)O[C@@H]2[C@H]13`, the IC50 (in the experiment with C6; in the experiment with Huh-7; in experiment [1]; in the experiment with PANC-1; with HeLa) was more than 10 µM throughout.

On to `C=C1C(=O)C2=C3[C@@H](CC[C@H]4C(=C)C(=O)O[C@@H]4[C@@H]13)CC[C@]21C(=O)C[C@H]2C(=C)CC[C@H]3C(=C)C(=O)O[C@@H]3[C@H]21`, for which the IC50 (commonly the concentration that gives 50% inhibition) was 6.4 µM with C6; more than 10 µM with Huh-7; more than 10 µM in experiment [1]; more than 10 µM in the experiment on PANC-1; more than 10 µM with HeLa.

In the case of `C=C1C(=O)O[C@@H]2[C@@H]3[C@@H](C[C@@]4(O)[C@]3(O)CC[C@]43C(=O)C[C@H]4C(=C)CC[C@H]5C(=C)C(=O)O[C@@H]5[C@H]43)C(=C)CC[C@@H]12`, the concentration for half-maximal inhibition (IC50) in the experiment on C6 is 4.3 µM; with Huh-7, 4.4 µM; in experiment [1], more than 10 µM; in the experiment on PANC-1 it was 9.9 µM; in the experiment with HeLa it was 5.3 µM.

As to `C=C1C(=O)C2=C3[C@H](CC[C@H]4C(=C)C(=O)O[C@@H]4[C@@H]13)CC[C@@]21C(=O)C2=C3[C@H]1[C@H]1OC(=O)C(=C)[C@@H]1CC[C@@]3(O)CC[C@]21C(=O)C[C@H]2C(=C)CC[C@H]3C(=C)C(=O)O[C@@H]3[C@H]21`, the concentration for half-maximal inhibition (IC50) in the experiment on C6 was 2.1 µM; with Huh-7, 7.5 µM; in experiment [1], more than 10 µM; with PANC-1 it was 2.5 µM; in the experiment with HeLa it was 7 µM.

As to `C=C1C(=O)C2=C3[C@H](CC[C@H]4C(=C)C(=O)O[C@@H]4[C@@H]13)CC[C@]21C(=O)C[C@H]2C(=C)CC[C@H]3C(=C)C(=O)O[C@@H]3[C@H]21`, the IC50 (in the experiment on C6; with Huh-7; in experiment [1]; in the experiment with PANC-1; in the experiment with HeLa) was more than 10 µM each time.

Consider `C=C1C(=O)C2=C3[C@H]1[C@H]1OC(=O)C(=C)[C@@H]1CC[C@]3(O)CC[C@]21C(=O)[C@H](C[C@@H]2C(=O)C[C@H]3C(=C)CC[C@H]4C(=C)C(=O)O[C@@H]4[C@@H]23)[C@H]2C(=C)CC[C@H]3C(=C)C(=O)O[C@@H]3[C@H]21`, for which the 50% inhibitory concentration (IC50) is 0.7 µM in the experiment with C6; 2.5 µM in the experiment on Huh-7; 8.3 µM in experiment [1]; 0.4 µM in the experiment with PANC-1; 1.3 µM in the experiment with HeLa.

For `C=C1C(=O)O[C@@H]2[C@@H]3C4=C(C(=O)[C@H]3C)[C@]3(CC[C@@]4(O)CC[C@@H]12)C(=O)C[C@H]1C(=C)CC[C@@H]2[C@H](OC(=O)[C@H]2C)[C@H]13`, the IC50 was 3.1 µM with C6; 4.1 µM in the experiment with Huh-7; more than 10 µM in experiment [1]; 4.9 µM with PANC-1; 6.5 µM in the experiment on HeLa.

Turning to `C=C1C(=O)C2=C3[C@H]1[C@H]1OC(=O)C(=C)[C@@H]1CC[C@]3(O)CC[C@]21C(=O)C[C@H]2C(=C)CC[C@H]3C(=C)C(=O)O[C@@H]3[C@H]21`, the IC50 is 1.2 µM in the experiment with C6; 2.5 µM with Huh-7; more than 10 µM in experiment [1]; 2.2 µM in the experiment with PANC-1; 2.8 µM with HeLa.

On to `C=C1C(=O)C2=C3[C@H]1[C@H]1OC(=O)C(CO)=C1CC[C@]3(O)CC[C@]21C(=O)C[C@H]2C(=C)CC[C@H]3C(=C)C(=O)O[C@@H]3[C@H]21`, for which the IC50 in the experiment on C6 was 9.9 µM; in the experiment with Huh-7 it was more than 10 µM; in experiment [1], more than 10 µM; in the experiment with PANC-1, more than 10 µM; in the experiment with HeLa it was more than 10 µM.

Regarding `C=C1C(=O)C2=C3[C@H]1[C@H]1OC(=O)C(=C)[C@@H]1CC[C@@]3(O)CC[C@]21C(=O)C[C@H]2C(=C)CC[C@H]3C(=C)C(=O)O[C@@H]3[C@H]21`, the IC50 in the experiment with C6 is more than 10 µM; in the experiment with Huh-7, more than 10 µM; in experiment [1], more than 10 µM; in the experiment on PANC-1 it was 5.4 µM; with HeLa, more than 10 µM.
